Results from PMC9738062, “Selectively Halogenated Flavonolignans—Preparation and Antibacterial Activity” (International Journal of Molecular Sciences, 2022).

Key:
[1] = system: Vibrio campbellii BAA 1118 (AI-1); test: Viability of the quorum-sensing reporter culture (resazurin assay), AI-1 strain; type: cell-based; conditions: BAA1118, V. campbellii BAA 1118, resazurin assay, read-out: IC50 (concentration that halved the viability)
Excerpt: (§1) Commercially available strains of Vibrio campbellii were used to evaluate the ability of flavonoids and their derivatives to inhibit bacterial quorum sensing. V. campbellii uses two types of autoinducing molecules for its communication—N-acyl-homoserine lactones (Autoinducer I, AI-1, strain BAA 1118) and furanosyl borate diester (Autoinducer II, AI-2, strain BAA 1119). AI-1-based communication is mainly used by Gram-negative bacteria, while AI-2-based communication is found in both Gram-negative and Gram-positive bacteria. The mutant strains of V. campbellii BA1118 and BA1119 respond only to AI-1 or AI-2, respectively, and the response to the respective AI concentration is measured as luminescence. The higher the AI concentration, the higher the luminescence signal. The ability to inhibit the communication was expressed as the selectivity index (SI), calculated as the ratio between the concentration that halved the viability (IC50) and the concentration that halved the communication (EC50) of the respective V. campbellii strains. […] The antimicrobial activity of quorum-sensing inhibitors is undesirable because it creates a selection pressure and can lead to the development of resistance.
(§2) The inhibition of bacterial extracellular communication was measured using Vibrio campbellii strains BAA-1118 and BAA-1119. The experiment was performed according to the methods of Szemerédi et al.. Briefly, 5 × 10^5 CFU/mL (colony-forming units per milliliter) were seeded in an Autoinducer Bioassay medium (NaCl 17.5 g/L, MgSO4 12.3 g/L, Casamino acids 2 g/L, 10 mL of 1 M potassium phosphate pH 7.0, 10 mL of 0.1 M L-arginine, and 10 mL of glycerol in 970 mL of deionized water) in a 96-well plate. Immediately, the tested compounds were added at the final concentration of 0.2–200 µM and luminescence was recorded for 16 h by a SpectraMax i3x microplate reader set at 30 °C, an integration time of 10,000 ms, and shaking for 60 s before measurement. […] The selectivity index was calculated as the […]. The EC50 and IC50 were calculated using GraphPad Prism software version 5.00 for Windows with a nonlinear regression curve fit.

[2] = system: Vibrio campbellii BAA 1119 (AI-2); test: Viability of the quorum-sensing reporter culture (resazurin assay), AI-2 strain; type: cell-based; conditions: BAA1119, V. campbellii BAA 1119, resazurin assay, read-out: IC50 (concentration that halved the viability)
Excerpt: as §1, §2

[3] = system: Vibrio campbellii BAA 1118 (AI-1); test: microbe, parasite or virus in culture; type: cell-based; conditions: for EC50: Vibrio campbellii, BAA1118, 16 h, read-out: EC50 (concentration that halved the communication); for SI (selectivity index): ratio IC50 (viability) / EC50 (communication), BAA 1118
Excerpt: as §1, §2

[4] = system: Vibrio campbellii BAA 1119 (AI-2); test: microbe, parasite or virus in culture; type: cell-based; conditions: for EC50: Vibrio campbellii, BAA1119, 16 h, read-out: EC50 (concentration that halved the communication); for SI (selectivity index): ratio IC50 (viability) / EC50 (communication), BAA 1119
Excerpt: as §1, §2

[5] = Ferric reducing antioxidant power (FRAP); conditions: Fe2+ equivalents
Description: (§3) To further elucidate how halogenation affects other properties of the flavonoids studied, their 2,2′-azino-bis-(3-ethylbenzothiazoline-6-sulfonic acid) cation (ABTS) and 1,1-diphenyl-2-picrylhydrazyl (DPPH) radical scavenging, the Folin–Ciocalteu reagent (FCR) reducing, the ferric-reducing antioxidant power (FRAP), and the anti-lipoperoxidation activities were evaluated by in vitro methods (Supplementary Information Tables S1 and S2).
(§4) The antiradical activity was evaluated by the ability to scavenge ABTS and DPPH radicals. Reducing capacity was assessed by the ability to reduce the Folin–Ciocalteu reagent (FCR) and ferric ions (FRAP). The ability to inhibit lipid peroxidation of pooled male rat microsomal liver membranes induced by tert-butyl hydroperoxide was also evaluated and the results were expressed as IC50 values.

[6] = system: human dermal fibroblasts (HDF); test: Cytotoxicity (resazurin assay, 72 h); type: cell-based; conditions: Fibroblast
Description: (§5) The cytotoxicity of flavonoids and their halogenated derivatives was determined as their ability to decrease the viability of human dermal fibroblasts (HDF) and doxorubicin-resistant human ovarian carcinomas (HOC/DOX). Both cell lines were cultivated in Dulbecco’s Modified Eagle’s Medium supplemented with fetal bovine serum (FBS, 10% v/v) and 1 × antibiotic antimycotic solution and incubated at 37 °C in the atmosphere of 5% CO2. The experiment was performed according to a previously published method. Briefly, 1 × 10^5 cells/mL were seeded into a 96-well plate (100 µL/well). After 24 h, flavonoids and their derivatives were administered at the concentration range of 31.25–500 µM. After 72 h, the viability was determined by resazurin assay (0.03 mg/mL of resazurin in PBS), where the fluorescence was measured after 2 h of incubation by the SpectraMax i3x microplate reader at a wavelength of 560/590 nm (excitation/emission). The concentration inhibiting half of the population (IC50) was determined using nonlinear regression in GraphPad Prism software. The selectivity index was calculated as the ratio between the IC50 for HDF (control, non-cancerous cells) and the IC50 for HOC/DOX (cancer cells).

[7] = system: doxorubicin-resistant human ovarian carcinoma (HOC/DOX); test: Cytotoxicity (resazurin assay, 72 h); type: cell-based; conditions: for IC50: Homo sapiens, 72 h, resazurin assay; for SI (selectivity index): ratio IC50 for HDF / IC50 for HOC/DOX
Description: as §5

[8] = system: lipopolysaccharide-stimulated macrophages (RAW 264.7); test: Inhibition of nitric oxide production (Griess reagent); type: cell-based, murine; conditions: Mus musculus, RAW264.7; LPS 100 ng/mL, 24 h; highest tested concentration 100 µM; read-out: NO Production IC50
Description: The anti-inflammatory activity of the tested flavonolignans was determined as the ability to reduce nitric oxide production by murine macrophages (RAW 264.7) stimulated by bacterial lipopolysaccharides, as previously described. […] For the experiment, 1 × 10^6 cells/mL was seeded into the 96-well plate (100 µL/well). […] After 24 h, the medium was mixed with Griess reagent (0.04 g/mL), prepared freshly in deionized water at the ratio of 1:1. The absorbance was measured after 15 min at 540 nm by the SpectraMax i3x microplate reader. Cell viability was determined by resazurin assay.

[9] = system: multidrug-resistant P. aeruginosa; test: Sensitization of antibiotic-resistant bacteria (compound plus breakpoint antibiotic concentration); type: cell-based, Pseudomonas aeruginosa; conditions: flavonoid 40 µM, 24 h; for Effect on viability in combination with colistin: colistin 2 mg/L; for Effect on viability in combination with imipenem: imipenem 4 mg/L; for Effect on viability in combination with imipenem: key: -: no effect (100% viability) was observed up to the highest flavonolignan concentration tested (>40 µM); reversion of resistance: the compound reversed the resistant phenotype to a sensitive one
Description: (§6) Clinically relevant antibiotics were selected for sensitization testing according to the European Committee on Antimicrobial Susceptibility Testing (EUCAST). Neither colistin and imipenem at breakpoint concentrations (according to EUCAST, […] and […]) affected the growth of the multidrug-resistant clinical strain of P. aeruginosa. Similarly, neither chloramphenicol and gentamicin at breakpoint concentrations ([…], respectively) affected the multidrug-resistant clinical strain of S. aureus. Flavonoids and their derivatives (1–40 µM) were used in combination therapy, along with the breakpoint concentration of antibiotics. After co-incubation, the minimum inhibitory concentration of flavonoids inhibiting the visible growth of bacteria was determined (Table 2).
(§7) Clinical isolates of P. aeruginosa and S. aureus were obtained from the General University Hospital in Prague (Prague, Czech Republic). P. aeruginosa was resistant to ciprofloxacin, oxacillin, ticarcillin, colistin, gentamicin, and imipenem. S. aureus was resistant to ciprofloxacin, gentamicin, erythromycin, chloramphenicol, clindamycin, oxacillin, cefotaxime, and vancomycin. Bacteria were cultivated in Mueller–Hinton broth (MH broth, Merck). The susceptibility of the bacteria was evaluated by the minimum inhibitory concentrations (MIC). The MIC of derivatives in the presence of the antibiotic cut-off concentration was determined according to ISO 20776-1: 2020. The antibiotic cut-off concentration was chosen according to the European Committee on Antimicrobial Susceptibility Testing (EUCAST, Clinical breakpoints—bacteria (ver. 11.0), 1 January 2021). The 40 µM concentration of the derivatives was chosen as the highest concentration for the tests. Cell viability was determined by measuring absorbance (A590 nm) after 24 h incubation at 37 °C, 150 rpm.

[10] = system: multidrug-resistant S. aureus; test: as above; type: cell-based, Staphylococcus aureus; conditions: flavonoid 40 µM, 24 h; for Effect on viability in combination with chloramphenicol: chloramphenicol 8 mg/L
Description: as §6, §7

[11] = Folin-Ciocalteu reagent reduction; conditions: gallic acid equivalents
Description: as §3, §4

[12] = DPPH radical scavenging; conditions: 1,1-diphenyl-2-picrylhydrazyl radical scavenging
Description: as §3, §4

[13] = ABTS cation radical scavenging; conditions: vitamin C equivalent antioxidant capacity
Description: as §3, §4

O=c1[nH]cc(F)c(=O)[nH]1 [5-Fluorouracil, reference compound]
IC50 [1]: 0.00068 µM | IC50 [2]: 3.41 nM | EC50 [3]: 0.00039 µM | SI (selectivity index) [3]: 1.73 ± 0.05 | EC50 [4]: 0.00044 µM | SI (selectivity index) [4]: 7.8 ± 0.5

[Fe+2] [Fe2+, reference compound]
FRAP [Fe2+eq] [5]: 1.01 Fe2+eq

COc1ccc2c(c1)c(CC(=O)O)c(C)n2C(=O)c1ccc(Cl)cc1 [Indomethacin, reference compound]
IC50 [6]: 222 µM | IC50 [7]: 17.1 ± 0.6 µM | SI (selectivity index) [7]: 12.94 | IC50 [8]: 51.3 ± 0.6 µM

CC1(C)[C@H](C(=O)O)N2C(=O)C[C@H]2S1(=O)=O [Sulbactam, reference compound]
Effect on viability in combination with colistin [9]: - | Effect on viability in combination with imipenem [9]: - | Effect on viability in combination with chloramphenicol [10]: reversion of resistance | Effect on viability in combination with gentamicin ([10]; gentamicin 1 mg/L): -

COc1cc([C@H]2Oc3cc([C@H]4Oc5c(Br)c(O)cc(O)c5C(=O)[C@@H]4O)ccc3O[C@@H]2CO)ccc1O [compound 19, 8-bromosilybin A]
FCR [GAE] [11]: 1.01 ± 0.02 GAE | IC50 [6]: 77.4 ± 1.1 µM | IC50 [7]: 202 µM | SI (selectivity index) [7]: 0.38 | IC50 [8]: 36.4 ± 1.7 µM | IC50 [12]: > 500 µM | Effect on viability in combination with colistin [9]: - | Effect on viability in combination with imipenem [9]: - | ABTS [CEAC] [13]: 0.68 ± 0.03 CEAC | IC50 [1]: 115 ± 5.4 µM | IC50 [2]: > 200000 nM | EC50 [3]: 33.9 ± 1.8 µM | SI (selectivity index) [3]: 3.4 ± 0.3 | EC50 [4]: 4.6 ± 0.3 µM | SI (selectivity index) [4]: ≥43.1 ± 2.6 | Effect on viability in combination with chloramphenicol [10]: - | FRAP [Fe2+eq] [5]: 0.057 ± 0.002 Fe2+eq

COc1cc([C@@H]2Oc3cc([C@H]4Oc5c(Br)c(O)cc(O)c5C(=O)[C@@H]4O)ccc3O[C@H]2CO)ccc1O [compound 20, 8-bromosilybin B]
FCR [GAE] [11]: 1.10 ± 0.02 GAE | IC50 [6]: 97.9 ± 4.4 µM | IC50 [7]: 227 µM | SI (selectivity index) [7]: 0.43 | IC50 [8]: 38 ± 2.2 µM | IC50 [12]: > 500 µM | Effect on viability in combination with colistin [9]: - | Effect on viability in combination with imipenem [9]: - | ABTS [CEAC] [13]: 0.47 ± 0.01 CEAC | IC50 [1]: 127 ± 4 µM | EC50 [3]: 44.2 ± 0.7 µM | SI (selectivity index) [3]: 2.9 ± 0.1 | EC50 [4]: 4.7 ± 0.2 µM | SI (selectivity index) [4]: ≥42.9 ± 2.1 | Effect on viability in combination with chloramphenicol [10]: - | FRAP [Fe2+eq] [5]: 0.056 ± 0.002 Fe2+eq

COc1cc([C@@H]2Oc3cc([C@H]4Oc5c(I)c(O)cc(O)c5C(=O)[C@@H]4O)ccc3O[C@H]2CO)ccc1O [compound 24, 8-iodosilybin B]
FCR [GAE] [11]: 1.01 ± 0.02 GAE | IC50 [12]: 97.1 µM | ABTS [CEAC] [13]: 0.47 ± 0.04 CEAC | FRAP [Fe2+eq] [5]: 0.079 ± 0.002 Fe2+eq

COc1cc([C@H]2Oc3cc([C@H]4Oc5c(I)c(O)c(I)c(O)c5C(=O)[C@@H]4O)ccc3O[C@@H]2CO)ccc1O [compound 25, 6,8-diiodosilybin A]
FCR [GAE] [11]: 0.95 ± 0.01 GAE | IC50 [12]: > 500 µM | ABTS [CEAC] [13]: 0.41 ± 0.01 CEAC | FRAP [Fe2+eq] [5]: 0.053 ± 0.003 Fe2+eq

COc1cc([C@@H]2Oc3cc([C@H]4Oc5c(I)c(O)c(I)c(O)c5C(=O)[C@@H]4O)ccc3O[C@H]2CO)ccc1O [compound 26, 6,8-diiodosilybin B]
FCR [GAE] [11]: 0.84 ± 0.04 GAE | IC50 [12]: 249 µM | ABTS [CEAC] [13]: 0.48 ± 0.01 CEAC | FRAP [Fe2+eq] [5]: 0.048 ± 0.001 Fe2+eq

O=C(O)c1cc(O)c(O)c(O)c1 [gallic acid, reference compound]
FCR [GAE] [11]: 1.00 GAE

O=C1O[C@H]([C@@H](O)CO)C(O)=C1O [vitamin C, reference compound]
ABTS [CEAC] [13]: 1.01 CEAC
